What is called melting point is the temperature, or range, at which the solid turns liquid.

Drawing on patent publication US7262185B2, “Benzazepine derivative, process for producing the same, and use” (Takeda Chemical Industries Ltd., priority 2001, dated 2007), this text covers melting point for nine compounds.

Compound `CCCCOCCOc1ccc(-c2ccc3c(c2)C=C(C(=O)Nc2ccc([S+]([O-])Cc4nncn4CCCC)cc2)CCN3CC(C)C)cc1` (stereo not drawn) [Compound 143, 7-[4-(2-butoxyethoxy)phenyl]-N-[4-(4-n-butyl-4H-1,2,4-triazol-3-ylmethylsulfinyl)phenyl]-1-isobutyl-2,3-dihydro-1H-benzazepine-4-carboxamide] displayed a melting point of 178 to 180 °C.

The compound `CCCCOCCOc1ccc(-c2ccc3c(c2)C=C(C(=O)Nc2ccc(C(O)c4cccc(C)[n+]4[O-])cc2)CCN3CC(C)C)cc1` (stereo not drawn) [Compound 98, 7-[4-(2-butoxyethoxy)phenyl]-N-[4-[hydroxy(6-methyl-1-oxidopyridin-2-yl)methyl]phenyl]-1-isobutyl-2,3-dihydro-1H-1-benzazepine-4-carboxamide] had a melting point of 114 to 116 °C.

In turn, `CCCCOCCOc1ccc(-c2ccc3c(c2)C=C(C(=O)Nc2ccc(C(O)c4ccc(Cl)c[n+]4[O-])cc2)CCN3CC(C)C)cc1` (stereo not drawn) [Compound 110, 7-[4-(2-butoxyethoxy)phenyl]-N-[4-[hydroxy(5-chloro-1-oxidopyridin-2-yl)methyl]phenyl]-1-isobutyl-2,3-dihydro-1H-1-benzazepine-4-carboxamide] had a melting point of 137 to 139 °C. For the compound `CCCCOCCOc1ccc(-c2ccc3c(c2)C=C(C(=O)Nc2ccc([C@H](O)c4cccc[n+]4[O-])cc2)CCN3CC2CC2)cc1` [Compound 84, 7-[4-(2-butoxyethoxy)phenyl]-1-cyclopropylmethyl-N-[4-[(S)-hydroxy(1-oxidopyridin-2-yl)methyl]phenyl]-2,3-dihydro-1H-1-benzazepine-4-carboxamide], the melting point lay within 85 to 88 °C. To `CCCCOCCOc1ccc(-c2ccc3c(c2)C=C(C(=O)Nc2ccc(C(O)c4c(OCCC)ccc[n+]4[O-])cc2)CCN3)cc1` (stereo not drawn) [Compound 113, 7-[4-(2-butoxyethoxy)phenyl]-N-[4-[hydroxy(1-oxido-3-propoxypyridine-2-yl)methyl]phenyl]-2,3-dihydro-1H-1-benzazepine-4-carboxamide] belongs 148 to 149 °C.

In turn, `CCCCOCCOc1ccc(-c2ccc3c(c2)C=C(C(=O)Nc2ccc([S+]([O-])c4cccc5nccn45)cc2)CCN3CC(C)C)cc1` (stereo not drawn) [Compound 169, 7-[4-(2-butoxyethoxy)phenyl]-1-isobutyl-N-[4-(imidazo[1,2-a]pyridin-5-ylsulfinyl)phenyl]-2,3-dihydro-1H-benzazepine-4-carboxamide] registered a melting point of 162 to 164 °C. `CCCCOCCOc1ccc(-c2ccc3c(c2)C=C(C(=O)Nc2ccc([S+]([O-])Cc4nnc(SC)n4CCC)cc2)CCN3CC(C)C)cc1` (stereo not drawn) [Compound 149, 7-[4-(2-butoxyethoxy)phenyl]-1-isobutyl-N-[4-(5-methylthio-4-propyl-4H-1,2,4-triazol-3-ylmethylsulfinyl)phenyl]-2,3-dihydro-1H-benzazepine-4-carboxamide] displayed a melting point of 150 to 152 °C.

For `CCCCOCCOc1ccc(-c2ccc3c(c2)C=C(C(=O)Nc2ccc(C(O)c4ncccc4OCCC)cc2)CCN3C(=O)C(F)(F)F)cc1` (stereo not drawn) [Compound 111, 7-[4-(2-butoxyethoxy)phenyl]-N-[4-[hydroxy(3-propoxypyridin-2-yl)methyl]phenyl]-1-trifluoroacetyl-2,3-dihydro-1H-1-benzazepine-4-carboxamide], the melting point lay within 154 to 157 °C.

Compound `CCCCOCCOc1ccc(-c2ccc3c(c2)C=C(C(=O)Nc2ccc([C@@H](O)c4cccc[n+]4[O-])cc2)CCN3C=O)cc1` [Compound 78, 7-[4-(2-butoxyethoxy)phenyl]-1-formyl-N-[4-[(R)-hydroxy(1-oxidopyridin-2-yl)methyl]phenyl]-2,3-dihydro-1H-1-benzazepine-4-carboxamide] yielded a melting point of 104 to 106 °C.
